In patent US12649980B2, “Three-dimensional surface for protein and small molecule microarrays” (The Johns Hopkins University, priority 2019, dated 2026):

Key:
[1] = biological target: T1, GLUT1 (Homo sapiens, UniProt P11166); experiment: rapafucin 3D microarray screen with GLUT1-containing cell lysate; assay type: binding; details: signal-to-background ratio, 3D surface, lysate of GLUT1-overexpressing HEK293T; hit if SBR > 3
T1 construct: The full-length human SLC2A1, SLC2A3, and SLC2A4 genes were PCR amplified and inserted into pLenti6M vector 2; expressed in transfected cells
T1 sequence (P11166 1-492): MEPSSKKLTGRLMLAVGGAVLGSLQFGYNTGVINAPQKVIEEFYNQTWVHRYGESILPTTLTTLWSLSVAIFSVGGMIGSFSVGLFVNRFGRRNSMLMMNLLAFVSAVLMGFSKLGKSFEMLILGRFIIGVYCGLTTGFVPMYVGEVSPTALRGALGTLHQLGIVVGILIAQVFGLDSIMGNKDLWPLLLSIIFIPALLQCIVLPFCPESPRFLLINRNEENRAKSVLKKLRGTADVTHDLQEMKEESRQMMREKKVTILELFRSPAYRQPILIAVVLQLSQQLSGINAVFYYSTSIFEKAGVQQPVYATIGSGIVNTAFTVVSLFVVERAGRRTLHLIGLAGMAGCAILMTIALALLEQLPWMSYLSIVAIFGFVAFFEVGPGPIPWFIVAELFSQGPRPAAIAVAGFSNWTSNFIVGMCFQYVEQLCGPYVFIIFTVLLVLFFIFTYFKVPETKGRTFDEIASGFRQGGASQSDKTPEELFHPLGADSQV
Description: (§1) Once stock solutions of the rapafucin library were arrayed on the 2D or 3D surface and most of solvent carrier was evaporated, the crosslinking reaction was initiated by irradiating the surfaces with 365-nm wavelength UV light. Kawatani and Osada, Medchemcomm 2014, 5, 277-287. […] To screen for GLUT1-interacting rapafucins, GLUT1 was stably overexpressed in HEK293T cells and generated cell lysates containing detergent-solubilized recombinant GLUT1 (FIG. 10). The GLUT1-containing cell lysate was then incubated on both 2D and 3D rapafucin microarrays. After washing the slides to remove unbound proteins, the bound GLUT1 protein was detected with anti-GLUT1 antibodies, followed by visualization with Cy5-labeled secondary antibodies using a microarray scanner. Rapafucins were scored as positive hits when the corresponding SBR was greater than 3. Based on this criterion, a total of 17 rapafucin hits and one positive control BAY-876, a specific GLUT1 inhibitor, Siebeneicher et al., ChemMedChem 2016, 11, 2261-2271, were identified on the 3D rapafucin microarray. In contrast, only one hit (WL13-F11, also among the 17 hits identified from the 3D rapafucin microarray) was identified on the 2D rapafucin microarray (Table 1, FIG. 11).
The amine substrates (Arrayit, SMM) were immerged in a mixture of 2-bromoisobutyryl bromide (BIBB, 0.1 mM, as initiator) and propionyl bromide (10 mM, as horizontal spacer) with triethylamine (15 mM) in DCM for 4 hours. A degassed polymerization reaction mixture, containing copper (II) chloride dihydrate (CuCl2, 4 mmol), 2,2′-bipyridine (2 mmol), 75 mmol monomers mixture of 2-(dimethylamino)ethyl methacrylate (DMAEMA) and poly(ethylene glycol) methacrylate (PEGMA Mn 360) in 500 mL Milli-Q/MeOH, was mixed with freshly made ascorbic acid (4 mmol). The mixture was applied to 50 slides for 6 hours under the argon atmosphere for the surface-initiated polymerization. A gradient ratio of PEGMA and DMAEMA was set, including 10:0, 8:2, 5:5, 2:8 and 0:10 for an optimization purpose. The terminals of the brushes were further functionalized by N,N′-disuccinimidyl carbonate (DSC, 10 mM) and 4-dimethylaminopyridine (DMAP,10 mM) in DMF overnight to form succinimidyl carbonate intermediate, and, successively, diazirine linker 1 (10 mM) and N,Ndiisopropylethylamine (DIPEA, 50 mM) in DMF for 2 hours to couple the photoaffinity linker in dark at room temperature. At the end, the substrates were immerged in a 50 mM ethanolamine in DMF to block the residual carboxylic moiety. The slides were thoroughly washed by DMF, EtOH and DCM and dried in a fuming cupboard and ready for spotting.
10 mM of rapafucins in DMSO from the library were spotted onto the slides with a high-precision microarrayer (Nanoprint, Arrayit, CA) for a desired pattern in dark, which was loaded with 16 100-μm diameter micro-spotting pins. The pin heads were thoroughly washed and sonicated in ethanol and dried for 4 times under a compassed air between each sample loading. After overnight evaporation, the slides were exposed to 365-nm wavelength UV irradiation for 4 J/cm^2 by CL-1000L UV crosslinker (UVP, CA) for rapafucins covalent immobilization. The slides were ultrasonic cleaned successively in DCM, MeOH and Milli-Q water and stored in a −20° C. freezer.
(§2) In the optimization experiments, the slides were incubated with 50 nM purified recombinant FKBP12 for 1 hour, while in the GLUT1 screening, 10 mg/mL of cell lysate containing DDM-solubilized GLUT1 from GLUT1 overexpressed HEK293T was incubated for 1 hour. Successively, primary antibody and CY5 labeled secondary antibody were added for 1 hour. The chips were washed in buffer A for 5 mins 3 times after the sample and antibodies incubation. After centrifugation, the dried chips were scanned by a microarray scanner (Genepix, US) at 635-nm wavelength. The final result was analyzed by GenePix software.

[2] = biological target: T1, GLUT1; experiment: rapafucin 2D microarray screen with GLUT1-containing cell lysate; assay type: binding; details: signal-to-background ratio, 2D surface, same lysate and conditions
Description: as §1, §2

[3] = tested on: DLD1 WT; experiment: [3H]-2DG uptake in DLD1 WT cells; assay type: cell-based; details: DLD1 wild type
Description: The inhibitory activity of compounds on glucose transport was analyzed by measuring the cell uptake of [3H]-2DG as previously described. Ulanovskaya et al., Chem. Biol. 2011, 18, 222-230. Briefly, cells were washed twice and incubated in low-glucose medium for 10 min. Cells were added drugs and incubated for another 10 min before adding [3H]-2DG. After 10 min incubation with [3H]-2DG, cells were washed twice and lysed with 0.2 N NaOH plus 0.2% SDS. The cell lysate was transferred to a new tube containing 1 mL of optiphase supermix. Glucose uptake was quantified with a scintillation counter.

[4] = biological target: T1, GLUT1; experiment: biotin-RgA pull-down and biotin probe competition binding assay, GLUT1; details: competition with 100 nM biotin-RgA probe, HEK293T GLUT1 lysate, Western blot densitometry; read-out: estimated Kd for GLUT1
Description: Next, the binding affinity of RgA for GLUT1 was determined using a RgA biotin pull-down assay. A biotin-RgA conjugate was synthesized by tethering the biotin moiety through carbon:carbon double bond in the FKBP-binding domain of RgA (FIG. 13). […] Using the biotin-RgA conjugate, a pulldown experiment with cell lysate containing detergent-solubilized GLUT1 protein prepared from HEK293T cells overexpressing GLUT1 was performed, followed by Western blot analysis with a GLUT1-specific antibody.
The estimation of Kd value for RgA was determined with the biotin probe competition binding assay. […] After western blot, band intensities were quantified by densitometry analysis using Image J software. The assay was repeated three times. GraphPad Prism (v4.03) software was used to determine apparent Kd value for RgA using a nonlinear regression.

3D SBR [1]: 6.5 ± 1.4 | 2D SBR [2]: <3.0 | EC50 [3]: 17.5 ± 2.5 nM | Kd [4]: 78 nM
SMILES: CCC(C)C1C(=O)NCC(=O)N(C)CCC=CC(=O)OCC(C)(C)C(=O)C(=O)N2CCCCC2C(=O)OC(CCc2ccc(OC)c(OC)c2)c2cccc(c2)NC(=O)CCC(=O)N(C)C(CC(C)C)C(=O)NC(Cc2ccccc2)C(=O)N1C (stereo not shown) [JW11-D2, Rapaglutin A]
